In ChEMBL document CHEMBL1201861, “Genomics of Drug Sensitity in Cancer screening data, Wellcome Trust Sanger Institute”:

Experiments:
Experiment in all cases: cells
NCI-H1792 = format: functional, cell-based; conditions: Homo sapiens;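 also: growth inhibition of human NCI-H1792 cells, read out as cell viability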
Description: SANGER: Inhibition of human NCI-H1792 cell growth in a cell viability assay.

OVCAR-8 = format: functional, cell-based; conditions: Homo sapiens;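 also: growth inhibition of human OVCAR-8 cells, read out by a cell viability assay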
Description: SANGER: Inhibition of human OVCAR-8 cell growth in a cell viability assay.

VM-CUB-1 = format: functional, cell-based; conditions: Homo sapiens;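 also: cell viability assay measuring growth inhibition of the human VM-CUB-1 cell line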
Description: SANGER: Inhibition of human VM-CUB-1 cell growth in a cell viability assay.

HC-1 = format: functional, cell-based, Homo sapiens; conditions: Homo sapiens, HC-1;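 also: growth inhibition of HC-1 cells measured by a cell viability assay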
Description: SANGER: Inhibition of human HC-1 cell growth in a cell viability assay.

TCC-SUP = format: functional, cell-based; conditions: Homo sapiens;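 also: growth inhibition of TCC-SUP cells, read out with a cell viability assay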
Description: SANGER: Inhibition of human TCCSUP cell growth in a cell viability assay.

CAL-27 = format: functional, cell-based; conditions: Homo sapiens;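 also: Viability-based readout, IC50 reflecting inhibition of CAL-27 cell growth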
Description: SANGER: Inhibition of human CAL-27 cell growth in a cell viability assay.

NCI-H358 = format: functional, cell-based; conditions: Homo sapiens;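 also: growth inhibition of NCI-H358 human cells, read out with a cell viability assay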
Description: SANGER: Inhibition of human NCI-H358 cell growth in a cell viability assay.

NCI-H292 = format: functional, cell-based; conditions: Homo sapiens;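 also: growth inhibition of NCI-H292 cells, read out with a cell viability assay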
Description: SANGER: Inhibition of human NCI-H292 cell growth in a cell viability assay.

ABC-1 = format: functional, cell-based; conditions: Homo sapiens;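 also: growth inhibition of human ABC-1 cells, read out by a cell viability assay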
Description: SANGER: Inhibition of human ABC-1 cell growth in a cell viability assay.

SW1990 = format: functional, cell-based; conditions: Homo sapiens;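 also: cell growth inhibition determined with a viability assay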
Description: SANGER: Inhibition of human SW1990 cell growth in a cell viability assay.

SW837 = format: functional, cell-based; conditions: Homo sapiens;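 also: growth inhibition of SW837 cells, determined with a cell viability assay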
Description: SANGER: Inhibition of human SW837 cell growth in a cell viability assay.

NCI-H661 = format: functional, cell-based; conditions: Homo sapiens;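 also: cell viability assay read-out, IC50 being the concentration that inhibits growth of the cells by half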
Description: SANGER: Inhibition of human NCI-H661 cell growth in a cell viability assay.

HO-1-N-1 = format: functional, cell-based; conditions: Homo sapiens;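 also: growth inhibition of human HO-1-N-1 cells, read out with a cell viability assay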
Description: SANGER: Inhibition of human HO-1-N-1 cell growth in a cell viability assay.

HCC1954 = format: functional, cell-based; conditions: Homo sapiens;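 also: growth inhibition of human HCC1954 cells, read out with a cell viability assay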
Description: SANGER: Inhibition of human HCC1954 cell growth in a cell viability assay.

HMV-2 cell line = format: functional, cell-based; conditions: Homo sapiens;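 also: growth inhibition of HMV-II cells, read out with a cell viability assay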
Description: SANGER: Inhibition of human HMV-II cell growth in a cell viability assay.

SCC-9 = format: functional, cell-based; conditions: Homo sapiens;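 also: Read-out is a cell viability assay, with values giving inhibition of cell growth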
Description: SANGER: Inhibition of human SCC-9 cell growth in a cell viability assay.

OE33 = format: functional, cell-based; conditions: Homo sapiens;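 also: growth inhibition of human OE33 cells, measured by a cell viability assay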
Description: SANGER: Inhibition of human OE33 cell growth in a cell viability assay.

KOSC-2 = format: functional, cell-based; conditions: Homo sapiens;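 also: growth inhibition of KOSC-2 cells, read out by a cell viability assay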
Description: SANGER: Inhibition of human KOSC-2 cell growth in a cell viability assay.

BFTC-905 = format: functional, cell-based; conditions: Homo sapiens
Description: SANGER: Inhibition of human BFTC-905 cell growth in a cell viability assay.

NCI-H2087 = format: functional, cell-based; conditions: Homo sapiens;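 also: growth inhibition determined with a cell viability readout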
Description: SANGER: Inhibition of human NCI-H2087 cell growth in a cell viability assay.

Kasumi 1 = format: functional, cell-based, Homo sapiens; conditions: Homo sapiens, Kasumi 1;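 also: growth inhibition of human Kasumi-1 cells, read out by a cell viability assay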
Description: SANGER: Inhibition of human KASUMI-1 cell growth in a cell viability assay.

KYSE-150 cell line = format: functional, cell-based; conditions: Homo sapiens;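 also: growth inhibition of human KYSE-150 cells, read out with a cell viability assay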
Description: SANGER: Inhibition of human KYSE-150 cell growth in a cell viability assay.

A204 = format: functional, cell-based; conditions: Homo sapiens;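 also: growth inhibition of human A204 cells, read out with a cell viability assay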
Description: SANGER: Inhibition of human A204 cell growth in a cell viability assay.

RVH-421 = format: functional, cell-based; conditions: Homo sapiens
Description: SANGER: Inhibition of human RVH-421 cell growth in a cell viability assay.

NCI-H28 = format: functional, cell-based; conditions: Homo sapiens;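 also: growth inhibition of human NCI-H28 cells, read out as cell viability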
Description: SANGER: Inhibition of human NCI-H28 cell growth in a cell viability assay.

T84 = format: functional, cell-based; conditions: Homo sapiens;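 also: growth inhibition measured with a cell viability readout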
Description: SANGER: Inhibition of human T84 cell growth in a cell viability assay.

SN12C = format: functional, cell-based; conditions: Homo sapiens;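 also: growth inhibition of human SN12C cells, measured by a cell viability assay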
Description: SANGER: Inhibition of human SN12C cell growth in a cell viability assay.

LK-2 = format: functional, cell-based; conditions: Homo sapiens;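 also: growth inhibition of LK-2 cells, read out with a viability assay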
Description: SANGER: Inhibition of human LK-2 cell growth in a cell viability assay.

5637 = format: functional, cell-based; conditions: Homo sapiens
Description: SANGER: Inhibition of human 5637 cell growth in a cell viability assay.

SAS = format: functional, cell-based; conditions: Homo sapiens;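 also: growth inhibition of SAS cells, read out with a cell viability assay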
Description: SANGER: Inhibition of human SAS cell growth in a cell viability assay.

J82 = format: functional, cell-based; conditions: Homo sapiens;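 also: growth inhibition of J82 cells, read out with a cell viability assay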
Description: SANGER: Inhibition of human J82 cell growth in a cell viability assay.

769-P = format: functional, cell-based; conditions: Homo sapiens
Description: SANGER: Inhibition of human 769-P cell growth in a cell viability assay.

NCI-H460 = format: functional, cell-based; conditions: Homo sapiens;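 also: cell viability assay scoring growth inhibition of human NCI-H460 cells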
Description: SANGER: Inhibition of human NCI-H460 cell growth in a cell viability assay.

HCT-116 = format: functional, cell-based; conditions: Homo sapiens
Description: SANGER: Inhibition of human HCT-116 cell growth in a cell viability assay.

MHH-ES-1 = format: functional, cell-based; conditions: Homo sapiens;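 also: cell growth inhibition measured by a cell viability assay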
Description: SANGER: Inhibition of human MHH-ES-1 cell growth in a cell viability assay.

NCI-H1793 = format: functional, cell-based; conditions: Homo sapiens;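 also: cell growth inhibition, read out by a cell viability assay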
Description: SANGER: Inhibition of human NCI-H1793 cell growth in a cell viability assay.

Capan-2 = format: functional, cell-based; conditions: Homo sapiens;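 also: Capan-2 cell growth inhibition, read out with a viability assay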
Description: SANGER: Inhibition of human Capan-2 cell growth in a cell viability assay.

NCI-H1651 = format: functional, cell-based; conditions: Homo sapiens;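 also: Read-out is a cell viability assay, with IC50 expressing inhibition of NCI-H1651 cell growth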
Description: SANGER: Inhibition of human NCI-H1651 cell growth in a cell viability assay.

SK-N-AS = format: functional, cell-based; conditions: Homo sapiens;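 also: growth inhibition of human SK-N-AS cells, measured with a cell viability assay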
Description: SANGER: Inhibition of human SK-N-AS cell growth in a cell viability assay.

A2780 = format: functional, cell-based; conditions: Homo sapiens;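 also: growth inhibition of A2780 cells, read out with a cell viability assay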
Description: SANGER: Inhibition of human A2780 cell growth in a cell viability assay.

HOS = format: functional, cell-based; conditions: Homo sapiens;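 also: growth inhibition of human HOS cells, read out with a cell viability assay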
Description: SANGER: Inhibition of human HOS cell growth in a cell viability assay.

A-375 = format: functional, cell-based; conditions: Homo sapiens;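 also: growth inhibition of A375 cells, read out with a cell viability assay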
Description: SANGER: Inhibition of human A375 cell growth in a cell viability assay.

Calu-3 = format: functional, cell-based; conditions: Homo sapiens;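 also: growth inhibition of human Calu-3 cells, determined with a cell viability assay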
Description: SANGER: Inhibition of human Calu-3 cell growth in a cell viability assay.

HSC-4 = format: functional, cell-based; conditions: Homo sapiens;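 also: growth inhibition of human HSC-4 cells, read out with a cell viability assay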
Description: SANGER: Inhibition of human HSC-4 cell growth in a cell viability assay.

UACC-62 = format: functional, cell-based; conditions: Homo sapiens;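 also: growth inhibition of human UACC-62 cells, read out by a cell viability assay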
Description: SANGER: Inhibition of human UACC-62 cell growth in a cell viability assay.

KYSE-520 cell line = format: functional, cell-based; conditions: Homo sapiens;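 also: growth inhibition of human KYSE-520 cells, read out with a viability assay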
Description: SANGER: Inhibition of human KYSE-520 cell growth in a cell viability assay.

HCC1419 = format: functional, cell-based; conditions: Homo sapiens;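 also: growth inhibition of human HCC1419 cells, read out as cell viability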
Description: SANGER: Inhibition of human HCC1419 cell growth in a cell viability assay.

BCPAP = format: functional, cell-based; conditions: Homo sapiens;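 also: growth inhibition of BCPAP cells, read out in a cell viability assay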
Description: SANGER: Inhibition of human BCPAP cell growth in a cell viability assay.

With `CN(NC(=O)CC(=O)NN(C)C(=S)c1ccccc1)C(=S)c1ccccc1` [ELESCLOMOL] the IC50 (NCI-H1792) was over 0.2 µM, the IC50 (OVCAR-8) was 0.00399 µM and the IC50 (VM-CUB-1) was 0.0127 µM. The IC50 (HC-1) was over 0.2 µM, the IC50 (TCC-SUP) was 0.0135 µM and the IC50 (CAL-27) was 0.0334 µM. The IC50 (NCI-H358) was 0.0136 µM, the IC50 (NCI-H292) was 0.000886 µM and the IC50 (ABC-1) was 0.000365 µM. For the same compound, the IC50 (SW1990) was 0.00432 µM, the IC50 (SW837) was 0.107 µM and the IC50 (NCI-H661) was 0.0125 µM. For the same compound, the IC50 (HO-1-N-1) was 0.0245 µM, the IC50 (HCC1954) was over 0.2 µM and the IC50 (HMV-2 cell line) was over 0.2 µM. For the same compound, the IC50 (SCC-9) was 0.121 µM, the IC50 (OE33) was over 0.2 µM and the IC50 (KOSC-2) was 0.00545 µM. For the same compound, the IC50 (BFTC-905) was 0.0205 µM, the IC50 (NCI-H2087) was over 0.2 µM and the IC50 (Kasumi 1) was over 0.2 µM. The IC50 (KYSE-150 cell line) was 0.095 µM, the IC50 (A204) was 0.00885 µM and the IC50 (RVH-421) was 0.0762 µM. The IC50 (NCI-H28) was 0.0137 µM, the IC50 (T84) was over 0.2 µM and the IC50 (SN12C) was 0.0284 µM. The IC50 (LK-2) was 0.0197 µM, the IC50 5637 was 0.0355 µM and the IC50 (SAS) was 0.0225 µM. For the same compound, the IC50 (J82) was 0.0141 µM, the IC50 (769-P) was 0.00982 µM and the IC50 (NCI-H460) was over 0.2 µM. It also gave an IC50 (HCT-116) of 0.04 µM, an IC50 (MHH-ES-1) of 0.00569 µM and an IC50 (NCI-H1793) of over 0.2 µM. The IC50 (Capan-2) was over 0.2 µM, the IC50 (NCI-H1651) was 0.0829 µM and the IC50 (SK-N-AS) was 0.03 µM. For the same compound, the IC50 (A2780) was 0.000594 µM, the IC50 (HOS) was 0.00253 µM and the IC50 (A-375) was 0.00414 µM. It also gave an IC50 (Calu-3) of over 0.2 µM, an IC50 (HSC-4) of 0.0048 µM and an IC50 (UACC-62) of 0.0232 µM. For the same compound, the IC50 (KYSE-520 cell line) was 0.104 µM, the IC50 (HCC1419) was 0.0196 µM and the IC50 (BCPAP) was 0.00134 µM.

`CC1=C(/C=C/C(C)=C/C=C/C(C)=C/C(=O)O)C(C)(C)CCC1` [TRETINOIN] showed an IC50 (NCI-H1792) of over 10 µM, an IC50 (OVCAR-8) of over 10 µM and an IC50 (VM-CUB-1) of over 10 µM. For the same compound, the IC50 (HC-1) was over 10 µM, the IC50 (TCC-SUP) was over 10 µM and the IC50 (CAL-27) was over 10 µM. It also gave an IC50 (NCI-H358) of over 10 µM, an IC50 (NCI-H292) of over 10 µM and an IC50 (ABC-1) of over 10 µM. It also gave an IC50 (SW1990) of over 10 µM, an IC50 (SW837) of over 10 µM and an IC50 (NCI-H661) of over 10 µM. The IC50 (HO-1-N-1) was over 10 µM, the IC50 (HCC1954) was over 10 µM and the IC50 (HMV-2 cell line) was over 10 µM. It also gave an IC50 (SCC-9) of over 10 µM, an IC50 (OE33) of over 10 µM and an IC50 (KOSC-2) of over 10 µM. For the same compound, the IC50 (BFTC-905) was over 10 µM, the IC50 (NCI-H2087) was over 10 µM and the IC50 (KYSE-150 cell line) was over 10 µM. It also gave an IC50 (A204) of over 10 µM, an IC50 (RVH-421) of over 10 µM and an IC50 (NCI-H28) of over 10 µM. The IC50 (T84) was over 10 µM, the IC50 (SN12C) was over 10 µM and the IC50 (LK-2) was over 10 µM. The IC50 5637 was over 10 µM, the IC50 (SAS) was over 10 µM and the IC50 (J82) was over 10 µM. The IC50 (769-P) was over 10 µM, the IC50 (NCI-H460) was over 10 µM and the IC50 (HCT-116) was over 10 µM. It also gave an IC50 (MHH-ES-1) of over 10 µM, an IC50 (NCI-H1793) of over 10 µM and an IC50 (Capan-2) of over 10 µM. It also gave an IC50 (NCI-H1651) of over 10 µM, an IC50 (SK-N-AS) of over 10 µM and an IC50 (A2780) of over 10 µM. It also gave an IC50 (HOS) of over 10 µM, an IC50 (A-375) of over 10 µM and an IC50 (Calu-3) of over 10 µM. For the same compound, the IC50 (HSC-4) was over 10 µM, the IC50 (UACC-62) was over 10 µM and the IC50 (KYSE-520 cell line) was over 10 µM. The IC50 (HCC1419) was over 10 µM and the IC50 (BCPAP) was over 10 µM.

`NC(=O)c1ccc(N(C(N)=O)c2c(F)cccc2F)nc1-c1ccc(F)cc1F` [VX-702] was tested, and the IC50 (NCI-H1792) was over 2 µM, the IC50 (OVCAR-8) was over 2 µM and the IC50 (VM-CUB-1) was over 2 µM. It also gave an IC50 (HC-1) of over 2 µM, an IC50 (TCC-SUP) of over 2 µM and an IC50 (CAL-27) of over 2 µM. It also gave an IC50 (NCI-H358) of over 2 µM, an IC50 (NCI-H292) of over 2 µM and an IC50 (ABC-1) of over 2 µM. The IC50 (SW1990) was over 2 µM, the IC50 (SW837) was over 2 µM and the IC50 (NCI-H661) was over 2 µM. It also gave an IC50 (HO-1-N-1) of over 2 µM, an IC50 (HCC1954) of over 2 µM and an IC50 (HMV-2 cell line) of 1.77 µM. For the same compound, the IC50 (SCC-9) was over 2 µM, the IC50 (OE33) was over 2 µM and the IC50 (KOSC-2) was over 2 µM. For the same compound, the IC50 (BFTC-905) was over 2 µM, the IC50 (NCI-H2087) was over 2 µM and the IC50 (KYSE-150 cell line) was over 2 µM. It also gave an IC50 (A204) of over 2 µM, an IC50 (RVH-421) of over 2 µM and an IC50 (NCI-H28) of over 2 µM. It also gave an IC50 (T84) of over 2 µM, an IC50 (SN12C) of over 2 µM and an IC50 (LK-2) of over 2 µM. The IC50 5637 was over 2 µM, the IC50 (SAS) was over 2 µM and the IC50 (J82) was over 2 µM. For the same compound, the IC50 (769-P) was over 2 µM, the IC50 (NCI-H460) was over 2 µM and the IC50 (HCT-116) was over 2 µM. The IC50 (MHH-ES-1) was over 2 µM, the IC50 (NCI-H1793) was over 2 µM and the IC50 (Capan-2) was over 2 µM. The IC50 (NCI-H1651) was over 2 µM, the IC50 (SK-N-AS) was over 2 µM and the IC50 (A2780) was over 2 µM. The IC50 (HOS) was over 2 µM, the IC50 (A-375) was over 2 µM and the IC50 (Calu-3) was over 2 µM. For the same compound, the IC50 (HSC-4) was over 2 µM, the IC50 (UACC-62) was over 2 µM and the IC50 (KYSE-520 cell line) was over 2 µM. It also gave an IC50 (HCC1419) of over 2 µM and an IC50 (BCPAP) of over 2 µM.
